Assay results taken from US12534449B2, “Stable crystalline hydrate of clazosentan disodium salt” (Idorsia Pharmaceuticals Ltd, priority 2020, dated 2026).
Where a name gives a salt, the structure may show the parent alone.

Experiments:
[1] = Gravimetric vapor sorption (GVS) analysis; type: physicochemical; conditions: for behaviour of water content with relative humidity (GVS): humidity scan; for water content (GVS) in equivalents of water: equilibrium / final water content
Description: Gravimetric vapor sorption analysis of form C was performed on a Hiden Isochema IGAsorp™ Model HAS-036-080. Approximately 20 mg of the sample was placed without any pre-treatment into a stainless-steel mesh sample holder. The measurement was run at 25° C. with changing the humidity in the order 40%-95%-0%-40% RH by steps of 5% RH and with maximum equilibration time of 24 h at each step. Gravimetric vapor sorption experiments for all the other hydrates disclosed herein were performed on a SPS 100n instrument from ProUmid GmbH & Co. KG. Typically, 10-20 mg of material were placed into tared aluminum pans without any pre-treatment. The measurements were again run at 25° C. and with changing the humidity in the order 20%-90%-0%-25% RH by steps of 5% and with maximum equilibration time of 24 h at each step. When plotting the data (see corresponding Figures), weight changes of one equivalent of water are indicated by dotted horizontal lines.

[2] = Solubility of COMPOUND in water; conditions: room temperature

Structure (SMILES) | hydrate stoichiometry attributed from GVS water content / uptake ([1]; 25° C.) | behaviour of water content with relative humidity (GVS) ([1]; 25° C.) | water content (GVS) in equivalents of water [1] | also measured
COc1ccccc1Oc1c([N-]S(=O)(=O)c2ccc(C)cn2)nc(-c2ccnc(-c3nnn[n-]3)c2)nc1OCCO.[Na+].[Na+] [form N] | tetrahydrate | noticeable adsorption of excess water with increasing relative humidity | – | –
COc1ccccc1Oc1c([N-]S(=O)(=O)c2ccc(C)cn2)nc(-c2ccnc(-c3nnn[n-]3)c2)nc1OCCO.[Na+].[Na+] [form P] | trihydrate | – | – | –
COc1ccccc1Oc1c(NS(=O)(=O)c2ccc(C)cn2)nc(-c2ccnc(-c3nnn[nH]3)c2)nc1OCCO [COMPOUND, 5-methyl-pyridine-2-sulfonic acid N-{6-(2-hydroxy-ethoxy)-5-(2-methoxy-phenoxy)-2-[2-(1H-tetrazol-5-yl)-pyridin-4-yl]-pyrimidin-4-yl}-amide disodium salt] | – | – | – | solubility in water [2]: about 25 g in 100 mL
COc1ccccc1Oc1c([N-]S(=O)(=O)c2ccc(C)cn2)nc(-c2ccnc(-c3nnn[n-]3)c2)nc1OCCO.[Na+].[Na+] [form L] | – | – | 3 equivalents | final water content (GVS experiment) ([1]; dried at 0% RH, then re-humidified at 40% RH): about 8%
COc1ccccc1Oc1c([N-]S(=O)(=O)c2ccc(C)cn2)nc(-c2ccnc(-c3nnn[n-]3)c2)nc1OCCO.[Na+].[Na+] [form C] | – | stable with a slight increase between 5% and 95% RH | – | behaviour of water content below 5% RH (GVS) ([1]; 25° C., below 5% RH): decreases dramatically; water content at the starting point (GVS) ([1]; 40% RH, 25° C., dry basis): 14%
COc1ccccc1Oc1c([N-]S(=O)(=O)c2ccc(C)cn2)nc(-c2ccnc(-c3nnn[n-]3)c2)nc1OCCO.[Na+].[Na+] [form E] | – | – | approx. 1 equivalents | water content at equilibrium (GVS scan) ([1]; 25° C.): 3%
